Assay [1] deals with Trypanosoma brucei rhodesiense (T. b. r.). Kind of assay: In vitro antiprotozoal activity against T. b. r. The assay is classed as cell-based. How it is done:
In vitro antiprotozoal activities were measured following established protocols. […] E., et al., Bioorg.

Assay [2] has as its system STIB 900 strain of Trypanosoma brucei rhodesiense (T. b. r.). Kind of assay: In vivo T. b. r. STIB 900 mouse model. The settings on record: 20 mg/kg ip. How it is done: Groups of four mice were infected intraperitoneally with 2×10^5 bloodstream forms of T. b. r. STIB 900 which originates from a patient in Tanzania. On days 3, 4, 5, and 6 post-infection the experimental groups were treated with the drugs either by the intraperitoneal or for prodrugs by the oral route. Usually the highest tolerated dose was used which was determined in a pretoxicological experiment. Parasitemia of the mice was checked daily up to day 14 post-infection and thereafter 2 times per week up to day 60. One group of mice was not treated and acted as control. For relapsing mice, the day of death was recorded and the survival time determined.

Assay [3] deals with human telomeric sequence d[AG3(T2AG3)3] (SEQ ID NO: 1). In words: Surface plasmon resonance, immobilized human telomeric DNA. The assay is classed as binding. How it is done: Surface plasmon resonance (SPR) measurements were performed with a four-channel Biacore® 3000 optical biosensor system (Biacore International AB, Uppsala, Sweden). 5′-biotin labeled DNA was immobilized onto streptavidin-coated Biacore® SA sensor chips as previously described. See Lacy, E. R., et al., J. Amer. Chem. Soc., 124, 2153-2163 (2002); Mazur, S., et al., J. Mol. Biol., 300, 321-337 (2000); Nguyen, B., et al., Biopolymers, 63, 281-297 (2002); Wang, L., et at, Proc. Natl. Acad. Sci. USA, 97, 12-16 (2000); and Wang, L., et al., Biochemistry, 40, 2511-2521 (2001). Two flow cells were used to immobilize the
DNA oligomer samples, while a third cell was left blank as a control. The SPR studies were performed at 25° C. in a filtered, degassed, 10 mM HEPES buffer (pH 7.4) containing 200 mM KCl, 3 mM EDTA and 0.005% surfactant P20 (Biacore International AB). Compound solutions were prepared by serial dilutions from stock solution and injected from 7-mm plastic vials with pierceable plastic crimp caps.
Solutions of known concentration of 8 ranging from 2 nM to 10 μM were injected through the flow cells until a constant steady-state response was obtained. […] The instrument response (RU) in the steady-state region was determined by linear averaging over a 50 second time span. The predicted maximum response per bound compound in the steady-state region (RUmax) was determined from the DNA molecular weight, the amount of DNA on the flow cell, the compound molecular weight, and the refractive index gradient ratio of the compound and DNA, as previously described. […] To obtain the binding constants, the data were fitted to a two-site equilibrium model using KaleidaGraph (Synergy Software, Reading, Pa., United States of America) for nonlinear least square optimization of the binding parameters, where RUmax is the maximum response per bound compound and K1 and K2 are the macroscopic binding constants for a two-site binding model: […]
Surface plasmon resonance (SPR) was used to quantitatively evaluate the interaction between 8 and human telomeric DNA. […]
A general note: SPR reads the build-up and loss of mass on a sensor chip optically.

The subject of assay [4] is modified human telomere sequences. In words: CD titration with modified human telomere sequences. The settings on record: 50 mM KCl, 10 mM K2HPO4, 0.1 mM EDTA, pH 7.0. The assay is classed as binding. The text has this: The oligonucleotides d[AG3(T2AG3)3] (SEQ ID NO: 1), d[AG3TG4AG3TG4A] (SEQ ID NO: 2), d[G4(T4G4)3] (SEQ ID NO: 3), d[(T2G4)4] (SEQ ID NO: 4), d[(GC)7] (SEQ ID NO: 5), d[[…]] (SEQ ID NO: 6), d[G2T2G2TGTG2T2G2] (SEQ ID NO: 7), d[[…]] (SEQ ID NO: 8), d[[…]] (SEQ ID NO: 9), d[[…]] (SEQ ID NO: 10), d[[…]] (SEQ ID NO: 11), d[TTAGGGT] (SEQ ID NO: 12), and d[TGGGGT] (SEQ ID NO: 13) were purchased with HPLC purification from Midland Certified Reagent Company (The Midland Certified Reagent Company, Inc., Midland, Tex., USA). The concentration of each DNA sample was determined spectrophotometrically at 260 nm using the nearest neighbor extinction coefficient.
Stock solutions of individual dicationic polyaryl compounds were prepared in double distilled water and diluted to working concentrations immediately before use with buffer. […] Absorbance spectra were obtained on a Varian Cary 300 BIO UV-visible spectrophotometer (Varian, Inc., Palo Alto, Calif., United States of America) in a quartz cell with a 1 cm pathlength. CD spectra were recorded using a Jasco J-810 spectrapolarimeter (Jasco, Inc., Easton, Md., United States of America) in a 1-cm cell using an instrument scanning speed of 50 nm/min with a response time of 1 s. The spectra were averaged over four scans. A buffer baseline scan was collected in the same cuvette and subtracted from the average scan for each sample. […]

Setting [5] is: SPR, 25° C., HEPES buffer containing 200 mM KCl.

Bounds are passed on as bounds.

As a reminder, the IC50 is the concentration that inhibits the measured activity by half. The low end stands for greater potency, the high end for weaker potency.

Take `N=C(N)c1ccc(-c2ccc(-c3ccc(C(=N)N)o3)o2)cc1` [Compound 8, 5′-(4-Amidinophenyl)-2,2′-bifuran-5-carboxamidine]: in assay [1], inhibition was half-maximal at 12 nM (IC50). In assay [2] (mice cured / mice infected, days 3-6 post-infection), the “In Vivo T.b.r. cures” value was 2/4. Further, the “In Vivo T.b.r. survival time” value in assay [2] (observation up to day 60) is over 45.5 days. The “selectivity for the human telomeric quadruplex over the duplex DNA” value in assay [3] (SPR binding constants) is reported as “approximately 4 fold”. For the same compound, in assay [3] (setting [5]), the “K1, macroscopic binding constant, two-site model” value was 470000 M⁻¹ and the “K2, macroscopic binding constant, two-site model” value worked out at 45000 M⁻¹. The “exciton splitting in CD spectra (in words)” value in assay [4] was “exhibited exciton splitting”.
